{
  "source": "patent EP0707004A1",
  "about": "“1-Arylalcenyl 4-arylmethylpiperazinderivatives, process for their preparation and pharmaceutical composition containing them” (ADIR ET COMPAGNIE, priority 1994, dated 1996)",
  "system": "hyperactivité induite par la N-allylnormétazocine",
  "assay": "Antagonism of N-allylnormetazocine-induced hyperactivity",
  "format": "in vivo",
  "details": "dose 32 mg.kg⁻¹; rats; N-allylnormetazocine 50 mg/kg subcutaneous",
  "source_text": "Ce test a été mis au point par Snyder S.H. et al (J. Neuropsychiatry, 1989, 1 : 7-15). La N-allylnormetazocine ((+) SKF 10047) induit un comportement psychotique chez l'homme et est le prototype d'agoniste pour les récepteurs σ.\nLa mesure de l'hyperactivité induite par ce produit est donc utilisée comme modèle alternatif pour détecter l'activité antipsychotique des composés agissant sur les récepteurs σ.\nUn groupe de 12 rats est traité avec le composé à tester avant l'administration sous-cutanée de 50 mg/kg de la N-allylnormetazocine. 30 minutes plus tard, les animaux sont placés dans un actimètre pendant 30 minutes.\nL'halopéridol est utilisé comme composé de référence.",
  "data": [
    {"smiles": "CCC(=Cc1ccccc1)C(=O)N1CCN(Cc2ccccc2)CC1", "note": "[Exemple 9, 1-(3-phényl-2-éthylprop-2-ènoyl)-4-benzylpipérazine]", "values": [
      {"measurement": "antagonisme de l'hypermotilité induite par la N-allylnormétazocine", "value": 42, "unit": "%"}
    ]}
  ]
}
